Values joined by “and” are separate entries in the source; they are usually repeats but may differ in a detail not shown here. Identical values can stand only once. Toxic doses and inconclusive results are not listed.
System: P388 leukemia ip, CD2F1 mice, survival T/C
Experiment: NCI In Vivo Anticancer Drug Screen. Data for tumor model P388 Leukemia (intraperitoneal) in CD2F1 (CDF1) mice
Settings: endpoint: median survival time, higher = longer survival
In short: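 Mice carrying the transplanted tumor received test compound or vehicle. Survival was recorded in each group, and the value is the treated-group measurement divided by that of the vehicle-treated control group.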

[1] = dose: 25.0 mg/kg/injection, schedule: Q04DX003 (ip), vehicle: saline with Tween-80
[2] = dose: 50.0 mg/kg/injection, schedule: Q04DX003 (ip), vehicle: saline with Tween-80
[3] = dose: 100.0 mg/kg/injection, schedule: Q04DX003 (ip), vehicle: saline with Tween-80
[4] = dose: 50.0 mg/kg/injection, schedule: Q01DX005 (ip), vehicle: saline with Tween-80
[5] = dose: 100.0 mg/kg/injection, schedule: Q01DX005 (ip), vehicle: saline with Tween-80
[6] = dose: 200.0 mg/kg/injection, schedule: Q04DX003 (ip), vehicle: saline with Tween-80
[7] = dose: 100.0 mg/kg/injection, schedule: Q01DX009 (ip), vehicle: saline with Tween-80
[8] = dose: 200.0 mg/kg/injection, schedule: Q01DX009 (ip), vehicle: saline with Tween-80
[9] = dose: 200.0 mg/kg/injection, schedule: Q01DX005 (ip), vehicle: saline with Tween-80
[10] = dose: 50.0 mg/kg/injection, schedule: Q01DX005 (ip), vehicle: Klucel (hydroxypropylcellulose) (HPC)
[11] = dose: 100.0 mg/kg/injection, schedule: Q01DX005 (ip), vehicle: Klucel (hydroxypropylcellulose) (HPC)
[12] = dose: 200.0 mg/kg/injection, schedule: Q01DX005 (ip), vehicle: Klucel (hydroxypropylcellulose) (HPC)
[13] = dose: 100.0 mg/kg/injection, schedule: Q04DX003 (ip), vehicle: saline
[14] = dose: 200.0 mg/kg/injection, schedule: Q04DX003 (ip), vehicle: saline

Structure (SMILES): CC(C)(C)c1cc(C(C)(C)O)c2c(c1)C(C)(C)OS2(=O)=O
- T/C (dose: 100.0 mg/kg/injection, schedule: Q04DX002 (ip), vehicle: Klucel (hydroxypropylcellulose) (HPC)): 96 % of control
- T/C (dose: 200.0 mg/kg/injection, schedule: Q04DX002 (ip), vehicle: Klucel (hydroxypropylcellulose) (HPC)): 87 % of control
- T/C (dose: 400.0 mg/kg/injection, schedule: Q04DX002 (ip), vehicle: Klucel (hydroxypropylcellulose) (HPC)): 97 % of control

Structure (SMILES): CC(C)COP(=O)(OCC(C)C)OCC(C)C.CC(C)COP(=O)(OCC(C)C)OCC(C)C.CC(C)COP(=O)(OCC(C)C)OCC(C)C.CC(C)COP(=O)(OCC(C)C)OCC(C)C.O.O.[Co+2].[O-][Cl+3]([O-])([O-])O
- T/C [1]: 94 % of control
- T/C [2]: 99 % of control
- T/C [3]: 114 % of control and 116 % of control

Structure (SMILES): N#Cc1c(NC(=O)Nc2cc(C(F)(F)F)ccc2Cl)sc(=S)c2c1CCCC2
- T/C [4]: 100 % of control
- T/C [5]: 103 % of control

Structure (SMILES): O=C1NC(=O)C2(CCCc3ccc(N(CCCl)CCCl)cc32)N1 (configuration not stated)
- T/C (dose: 0.38 mg/kg/injection, schedule: Q04DX003 (ip), vehicle: saline with Tween-80): 108 % of control
- T/C (dose: 0.75 mg/kg/injection, schedule: Q04DX003 (ip), vehicle: saline with Tween-80): 104 % of control
- T/C (dose: 1.5 mg/kg/injection, schedule: Q04DX003 (ip), vehicle: saline with Tween-80): 104 % of control
- T/C (dose: 12.5 mg/kg/injection, schedule: Q01DX009 (ip), vehicle: saline with Tween-80): 159 % of control
- T/C (dose: 25.0 mg/kg/injection, schedule: Q01DX009 (ip), vehicle: saline with Tween-80): 172 % of control
- T/C [2]: 181 % of control
- T/C [3]: 181 % of control
- T/C (dose: 132.0 mg/kg/injection, schedule: Q04DX003 (ip), vehicle: saline with Tween-80): 177 % of control

Structure (SMILES): C[C@]12C=CC(=O)C[C@@H]1CC[C@@H]1[C@@H]2C(=O)C[C@]2(C)C(=O)CC[C@@H]12
- T/C [3]: 108 % of control
- T/C [6]: 91 % of control
- T/C (dose: 400.0 mg/kg/injection, schedule: Q04DX003 (ip), vehicle: saline with Tween-80): 108 % of control

Structure (SMILES): Cc1ccc(NC(=O)NCCCCCCNC(=O)Nc2ccc(C)cc2)cc1
- T/C (dose: 60.0 mg/kg/injection, schedule: Q01DX005 (ip), vehicle: saline with Tween-80): 96 % of control
- T/C (dose: 120.0 mg/kg/injection, schedule: Q01DX005 (ip), vehicle: saline with Tween-80): 94 % of control
- T/C (dose: 240.0 mg/kg/injection, schedule: Q01DX005 (ip), vehicle: saline with Tween-80): 106 % of control

Structure (SMILES): CCC(O)(CC(=O)O)c1ccccc1 (configuration not stated)
- T/C [7]: 104 % of control
- T/C [8]: 95 % of control

Structure (SMILES): CC(C)=CCC/C(C)=C/COC(=O)C=[N+]=[N-]
- T/C (dose: 50.0 mg/kg/injection, schedule: Q01DX009 (ip), vehicle: saline with Tween-80): 114 % of control and 91 % of control
- T/C [7]: 122 % of control
- T/C [8]: 117 % of control and 122 % of control
- T/C (dose: 400.0 mg/kg/injection, schedule: Q01DX009 (ip), vehicle: saline with Tween-80): 95 % of control

Structure (SMILES): CC1(C)CC(=O)C=C(OS(=O)(=O)C(F)(F)F)C1
- T/C (dose: 12.5 mg/kg/injection, schedule: Q01DX009 (ip), vehicle: distilled water + Tween-80): 111 % of control
- T/C (dose: 25.0 mg/kg/injection, schedule: Q01DX009 (ip), vehicle: distilled water + Tween-80): 112 % of control
- T/C (dose: 50.0 mg/kg/injection, schedule: Q01DX009 (ip), vehicle: distilled water + Tween-80): 98 % of control

Structure (SMILES): CCOc1cc(=O)cc2n(-c3cc(OCC)c(OC)c(OCC)c3)c3ccccc3nc1-2
- T/C (dose: 50.0 mg/kg/injection, schedule: Q01DX009 (ip), vehicle: suspension in saline): 101 % of control
- T/C (dose: 100.0 mg/kg/injection, schedule: Q01DX009 (ip), vehicle: suspension in saline): 101 % of control
- T/C (dose: 200.0 mg/kg/injection, schedule: Q01DX009 (ip), vehicle: suspension in saline): 90 % of control

Structure (SMILES): CN(C)Nc1ncnc2c1ncn2C
- T/C [4]: 103 % of control
- T/C [5]: 100 % of control
- T/C [9]: 97 % of control

Structure (SMILES): CC(=O)N1N=C(C)C2ON=C(c3ccc(Cl)cc3)P21 (configuration not stated)
- T/C [10]: 107 % of control
- T/C [11]: 100 % of control
- T/C [12]: 100 % of control

Structure (SMILES): COc1cc([C@@H]2c3cc4c(cc3[C@H](O)[C@H]3COC[C@@H]23)OCO4)cc(OC)c1OC
- T/C [4]: 103 % of control
- T/C [5]: 108 % of control
- T/C [9]: 103 % of control

Structure (SMILES): Oc1c(Cl)cc(Cl)cc1/C=N/Nc1ccc2ccccc2n1
- T/C [2]: 89 % of control
- T/C [3]: 94 % of control
- T/C [6]: 100 % of control

Structure (SMILES): CCOc1ccc(/C=N/NC(=O)c2c(-c3ccccc3)noc2C)cc1
- T/C [4]: 86 % of control
- T/C [5]: 91 % of control
- T/C [9]: 97 % of control

Structure (SMILES): COc1ccc(/C=N/N2C(=O)c3ccccc3C2=O)cc1
- T/C [10]: 105 % of control
- T/C [11]: 93 % of control
- T/C [12]: 100 % of control

Structure (SMILES): CCCn1c(Cl)c(/C=N\Nc2ccc([N+](=O)[O-])cc2)c2ccccc21
- T/C (dose: 100.0 mg/kg/injection, schedule: Q01DX001 (ip), vehicle: saline with Tween-80): 103 % of control
- T/C (dose: 200.0 mg/kg/injection, schedule: Q01DX001 (ip), vehicle: saline with Tween-80): 95 % of control
- T/C (dose: 400.0 mg/kg/injection, schedule: Q01DX001 (ip), vehicle: saline with Tween-80): 95 % of control

Structure (SMILES): [Br][Rh][Br].[NH-]c1nc2c(ccc3ccccc32)s1.[NH-]c1nc2c(ccc3ccccc32)s1.[NH-]c1nc2c(ccc3ccccc32)s1.[NH-]c1nc2c(ccc3ccccc32)s1
- T/C [13]: 109 % of control
- T/C [14]: 103 % of control
- T/C (dose: 400.0 mg/kg/injection, schedule: Q04DX003 (ip), vehicle: saline): 98 % of control

Structure (SMILES): CCOC(=O)C(Cl)c1ccc(OC)cc1 (configuration not stated)
- T/C (dose: 100.0 mg/kg/injection, schedule: Q04DX003 (ip), vehicle: other): 104 % of control
- T/C (dose: 200.0 mg/kg/injection, schedule: Q04DX003 (ip), vehicle: other): 90 % of control
- T/C (dose: 400.0 mg/kg/injection, schedule: Q04DX003 (ip), vehicle: other): 104 % of control

Structure (SMILES): CN(C)c1cccc2c(S(=O)(=O)Cl)cccc12
- T/C [1]: 106 % of control
- T/C [2]: 114 % of control
- T/C [3]: 110 % of control
- T/C [6]: 124 % of control

Structure (SMILES): O=S(=O)(C(c1ccc(Cl)cc1)c1ccc(Cl)cc1)C(Cl)(Cl)Cl
- T/C (dose: 25.0 mg/kg/injection, schedule: Q01DX001 (ip), vehicle: Klucel (hydroxypropylcellulose) (HPC)): 108 % of control
- T/C (dose: 50.0 mg/kg/injection, schedule: Q01DX001 (ip), vehicle: Klucel (hydroxypropylcellulose) (HPC)): 102 % of control
- T/C (dose: 100.0 mg/kg/injection, schedule: Q01DX001 (ip), vehicle: Klucel (hydroxypropylcellulose) (HPC)): 102 % of control

Structure (SMILES): CCOC(=O)C1=C(C)/C(=C/c2[n-]c(Cl)c(C)c2C(=O)OCC)N=C1C.CCOC(=O)C1=C(C)/C(=C/c2[n-]c(Cl)c(C)c2C(=O)OCC)N=C1C.[Ni+2]
- T/C [10]: 102 % of control
- T/C [11]: 114 % of control
- T/C [12]: 102 % of control

Structure (SMILES): C=C(C1=CC(=O)C(C)=C(OC)C1=O)C(CC=C(C)C)OC(=O)/C(C)=C/C (configuration not stated)
- T/C (dose: 1.56 mg/kg/injection, schedule: Q01DX005 (ip), vehicle: Klucel (hydroxypropylcellulose) (HPC)): 92 % of control
- T/C (dose: 3.12 mg/kg/injection, schedule: Q01DX005 (ip), vehicle: Klucel (hydroxypropylcellulose) (HPC)): 99 % of control
- T/C (dose: 6.25 mg/kg/injection, schedule: Q01DX005 (ip), vehicle: Klucel (hydroxypropylcellulose) (HPC)): 101 % of control
- T/C (dose: 12.5 mg/kg/injection, schedule: Q01DX005 (ip), vehicle: Klucel (hydroxypropylcellulose) (HPC)): 96 % of control
- T/C (dose: 25.0 mg/kg/injection, schedule: Q01DX005 (ip), vehicle: Klucel (hydroxypropylcellulose) (HPC)): 102 % of control

Structure (SMILES): CS/C(=C\c1sc2ccccc2[n+]1C)SCC(=O)c1ccccc1
- T/C (dose: 25.0 mg/kg/injection, schedule: Q04DX002 (ip), vehicle: saline with Tween-80): 100 % of control
- T/C (dose: 50.0 mg/kg/injection, schedule: Q04DX002 (ip), vehicle: saline with Tween-80): 104 % of control
- T/C (dose: 100.0 mg/kg/injection, schedule: Q04DX002 (ip), vehicle: saline with Tween-80): 106 % of control

Structure (SMILES): S=C1NCCCN1
- T/C (dose: 25.0 mg/kg/injection, schedule: Q04DX003 (ip), vehicle: saline): 99 % of control
- T/C (dose: 50.0 mg/kg/injection, schedule: Q04DX003 (ip), vehicle: saline): 104 % of control
- T/C [13]: 100 % of control
- T/C [14]: 100 % of control

Structure (SMILES): C=C1C(=O)OC2C=CCCC12 (configuration not stated)
- T/C (dose: 12.5 mg/kg/injection, schedule: Q01DX009 (ip), vehicle: water): 101 % of control
- T/C (dose: 25.0 mg/kg/injection, schedule: Q01DX009 (ip), vehicle: water): 103 % of control
- T/C (dose: 50.0 mg/kg/injection, schedule: Q01DX009 (ip), vehicle: water): 106 % of control
- T/C (dose: 100.0 mg/kg/injection, schedule: Q01DX009 (ip), vehicle: water): 118 % of control
